Source: patent EP4628519A1, “ORGANOGERMANIUM(IV) CARBOXYLATES AND MIXTURES OF GERMANIUM CARBOXYLATES WITH ORGANIC ACID ANHYDRIDES AS CATALYSTS” (Technische Universität Graz, priority 2024, dated 2025)

Experiments:
[1] = Solubility of the germanium carboxylates in solvents (gravimetry or NMR)
Stability in water = conditions: result in words

CCCCCCCCCCCC(=O)[O][Ge]([O]C(=O)CCCCCCCCCCC)([O]C(=O)CCCCCCCCCCC)[O]C(=O)CCCCCCCCCCC [Ge(OLau)4, germanium(IV) tetralaurate]
solubility, times higher ([1]; Ge(OLau)4 relative to Ge(OAc)4): around 2 times | solubility ([1]; in benzene, determined via NMR): 11000 µg/mL | solubility in organic solvents ([1]; result in words): poorly soluble

CC(=O)[O][Ge]([O]C(C)=O)([O]C(C)=O)[O]C(C)=O [Ge(OAc)4, germanium(IV) tetraacetate]
stability in water (Stability in water): stable | solubility in H2O ([1]; H2O, result in words): good soluble | m(Ge(OAc)4) ([1]; Solvent Benzene, Method NMR): 2.7 g/L | m(Ge(OAc)4) ([1]; Solvent Chloroform, Method NMR): 4.8 g/L | m(Ge(OAc)4) ([1]; Solvent DCM, Method Gravimetry): 4.2 g/L | m(Ge(OAc)4) ([1]; Solvent H2O, Method Gravimetry): 170 g/L | m(Ge(OAc)4) ([1]; Solvent THF, Method Gravimetry): 4.3 g/L | m(Ge(OAc)4) ([1]; Solvent Toluene, Method Gravimetry): 2.6 g/L | solubility ([1]; in toluene, at room temperature): 2600 µg/mL | solubility in organic solvents ([1]; result in words): poorly soluble

CC(=O)OC(=O)C[CH2][Ge]([O]C(C)=O)([O]C(C)=O)[O]C(C)=O [(PAA)Ge(OAc)3]
solubility in organic solvents ([1]; result in words): good soluble

COC(=O)C[CH2][Ge]([O]C(C)=O)([O]C(C)=O)[O]C(C)=O [(PME)Ge(OAc)3]
solubility in organic solvents ([1]; result in words): good soluble

CC(=O)[O][Ge]([O]C(C)=O)([O]C(C)=O)[c]1ccccc1 [PhGe(OAc)3]
solubility in organic solvents ([1]; result in words): good soluble
